We go through 1 compound from ChEMBL document CHEMBL1157613, “Salicylic acid based small molecule inhibitor for the oncogenic Src homology-2 domain containing protein tyrosine phosphatase-2 (SHP2)” (J Med Chem, 2010).

Each structure is given as a SMILES string.

The target of test [1] is T1, Tyrosine-protein phosphatase non-receptor type 7 (Homo sapiens, UniProt P35236).
T1 sequence (P35236 whole entry): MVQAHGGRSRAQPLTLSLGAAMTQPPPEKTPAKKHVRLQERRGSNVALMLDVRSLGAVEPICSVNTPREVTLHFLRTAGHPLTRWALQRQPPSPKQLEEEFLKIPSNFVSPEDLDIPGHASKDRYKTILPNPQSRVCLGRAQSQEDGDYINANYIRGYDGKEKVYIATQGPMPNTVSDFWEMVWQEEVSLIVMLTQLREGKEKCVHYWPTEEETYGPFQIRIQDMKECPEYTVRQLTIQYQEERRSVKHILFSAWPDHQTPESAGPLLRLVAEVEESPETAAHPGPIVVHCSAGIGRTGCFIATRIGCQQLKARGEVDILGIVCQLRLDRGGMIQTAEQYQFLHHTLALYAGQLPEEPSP
Kind of test: Inhibition of HePTP expressed in Escherichia coli assessed as inhibition of p-nitrophenyl phosphate hydrolysis at pH 7 by spectrophotometry.

For test [2], the target named is T2, Low molecular weight phosphotyrosine protein phosphatase (Homo sapiens, UniProt P24666).
T2 sequence (P24666 whole entry): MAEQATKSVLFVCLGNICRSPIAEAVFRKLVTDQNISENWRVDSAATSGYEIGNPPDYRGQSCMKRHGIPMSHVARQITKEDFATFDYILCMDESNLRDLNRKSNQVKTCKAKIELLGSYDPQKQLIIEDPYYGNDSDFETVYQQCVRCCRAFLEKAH
Kind of test: Inhibition of LMWPTP expressed in Escherichia coli assessed as inhibition of p-nitrophenyl phosphate hydrolysis at pH 7 by spectrophotometry.

One may read the IC50 as the concentration that inhibits the measured activity by half. For the compound `Cn1c(-c2ccccc2)c(-c2cn(CCC(=O)Nc3ccc(-c4ccccc4)cc3)nn2)c2cc(C(=O)O)c(O)cc21`, the IC50 was more than 50 µM in test [1] and 31.1 µM in test [2].
